One experiment addresses GABA-A receptor; anion channel. Description: Binding affinity to Rattus norvegicus (rat) brain GABA-A receptor benzodiazepine site.
`CNc1nc2c(N(C)C)ncnc2n1Cc1cccc(C)c1` had a pIC50 of 5.14.

The target in another experiment is GABA-A receptor; anion channel. Description: Displacement of [3H]flunitrazepam from Rattus norvegicus (rat) brain GABA-A receptor benzodiazepine site.
`CCCc1c(OC)nc2nc(C(=O)c3ccccc3)cn2c1CC` gave a pIC50 of 7.328.

In the case of `CCc1c(OC)nc2nc(C(=O)c3ccccc3)cn2c1CC`, the pIC50 came out at 7.252.

Target in the next experiment: not listed separately
Description: Binding affinity to GABA-A receptor benzodiazepine site (unknown origin). The arrangement: species or system Homo sapiens.
Turning to `CCOC(=O)c1ncc2[nH]c3ccc(OCc4ccccc4)cc3c2c1COC`, the pIC50 is 9.

`Nc1cc2c(cn1)[nH]c1ccccc12`: the pIC50 came out at 4.6.

`S=C=Nc1cc2c(cn1)[nH]c1ccccc12` registered a pIC50 of 8.1.

Consider `CC(=O)C(=O)c1cc2c(cn1)[nH]c1ccccc12`, for which the pIC50 is reported as 8.

As for `Oc1cc2c(cn1)[nH]c1ccccc12`, the pIC50 was found to be 5.4.

In turn, `CCOC(=O)c1cc2c(cn1)[nH]c1ccccc12` registered a pIC50 of 8.3.

The compound `CCc1nc(C(=O)OC)cc2c1[nH]c1ccccc12` registered a pIC50 of 5.12.

Turning to `CC(C)(C)COC(=O)c1cc2c(cn1)[nH]c1ccccc12`, the pIC50 is 6.12.

With `CC(C)Oc1cc2c(cn1)[nH]c1ccccc12`, the pIC50 is given as 6.29.

`CCCCOc1cc2c(cn1)[nH]c1ccccc12` displayed a pIC50 of 7.01.

Take `O=[N+]([O-])c1cc2c(cn1)[nH]c1ccccc12`: the pIC50 was found to be 6.9.

As for `COc1cc2c(cn1)[nH]c1ccccc12`, the pIC50 is listed as 6.91.

Turning to `Clc1cc2c(cn1)[nH]c1ccccc12`, the pIC50 was 7.35.

Compound `CCOc1cc2c(cn1)[nH]c1ccccc12` gave a pIC50 of 7.62.

`CCCOc1cc2c(cn1)[nH]c1ccccc12` returned a pIC50 of 7.96.

Regarding `CCCC(=O)c1cc2c(cn1)[nH]c1ccccc12`, the pIC50 is 7.64.

Compound `CCCCc1cc2c(cn1)[nH]c1ccccc12` came in with a pIC50 of 6.64.

Turning to `COC(=O)c1cc2c(cn1)[nH]c1ccccc12` [BETA-CCM], the pIC50 is reported as 8.3.

`Cc1nccc2c1[nH]c1ccccc12` [HARMAN]: the pIC50 is given as 4.91.

As for `c1ccc2c(c1)[nH]c1cnccc12` [NORHARMANE], the pIC50 was 5.79.
